Like-named read-outs stand apart in the source and are kept apart here.
Key:
Colo205 = assay: CellTiter-Glo cell viability assay, Colo205; assay type: cell-based; conditions: Homo sapiens, read-out: Colo205 IC50
From the text: (§1) The CellTiter-Glo® Luminescent Cell Viability Assay is a homogeneous method of determining the number of viable cells in culture based on quantitation of the ATP present, which signals the presence of metabolically active cells. The homogeneous assay procedure involves addition of a single reagent directly to cells cultured in serum-supplemented medium. The homogeneous format results in cell lysis and generation of a luminescent signal proportional to the amount of ATP present. The CellTiter-Glo® Assay relies on the properties of a proprietary thermostable luciferase (Ultra-Glo. Recombinant Luciferase), which generates a stable glow-type Luminescent signal. The half-life of the luminescent signal resulting from this reaction is greater than five hours. This extended half-life eliminates the need for reagent injectors and provides flexibility for continuous or batch-mode processing of multiple plates. The unique homogeneous format reduces pipetting errors that may be introduced during the multiple steps required by other ATP-measurement methods.
(§2) 96 Well cell culture plates were seeded with 10^3 mammalian cells (Colo205, HL-60, SW620, HCT116, MCF-7 and MV-411) in 100 μl culture medium. The cells were incubated overnight prior to initiating the assay. Control wells were prepared on a plate containing medium only to obtain a value for background luminescence.
(§3) Compounds to be tested were added to experimental wells and incubated for 72 hrs (Colo205, HL-60, MV-411), 168 hrs (HCT116, SW620) or 240 hrs (MCF-7). Wells were also set up to as vehicle controls with the addition of 0.1% DMSO. At the end of the incubation period, the plates were equilibrated to room temperature for approximately 30 minutes.
(§4) Lyophilized CellTiter-Glo® Substrate and the CellTiter-Glo® Buffer were warmed to room temperature. The CellTiter-Glo® Buffer was mixed with the CellTiter-Glo® Substrate to reconstitute the lyophilized enzyme/substrate mixture. This forms the CellTiter-Glo® Reagent. The contents were mixed by gently vortexing, swirling or by inverting the contents to obtain a homogeneous solution. 100 μl of CellTiter-Glo® Reagent was added to the cell culture medium present in each well. The contents were mixed for 2 minutes on an orbital shaker to induce cell lysis. The plates were allowed to incubate at room temperature for 10 minutes to stabilize luminescent signal. The contents of the 96 well cell culture plate were then transferred to a white 96 well Optiplate (Perkin Elmer). The luminescence was recorded on Wallac 1420 VICTOR^2 V Multilabel Platereader (An integration time of 0.25-1 second per well).
(§5) 10 mM DMSO stock Compounds were serially diluted threefold in DMSO. Subsequent dilutions made into cell culture media prior to addition to cells to maintain the DMSO concentration at or below 0.1% to avoid cell toxicity.
(§6) The IC50s in Table 2 are the concentration at which 50% growth inhibition relative to control occurs.

HL-60 = assay: CellTiter-Glo cell viability assay, HL-60; assay type: cell-based; conditions: Homo sapiens, read-out: HL-60 IC50
From the text: as §1, §2, §3, §4, §5, §6

SW620 = assay: CellTiter-Glo cell viability assay, SW620; assay type: cell-based; conditions: Homo sapiens, read-out: SW620 IC50
From the text: as §1, §2, §3, §4, §5, §6

HCT116 = assay: CellTiter-Glo cell viability assay, HCT116; assay type: cell-based; conditions: Homo sapiens, read-out: HCT116 IC50
From the text: as §1, §2, §3, §4, §5, §6

MCF-7 = assay: CellTiter-Glo cell viability assay, MCF-7; assay type: cell-based; conditions: Homo sapiens, read-out: MCF-7 IC50
From the text: as §1, §2, §3, §4, §5, §6

MV-411 = assay: CellTiter-Glo cell viability assay, MV-411; assay type: cell-based; conditions: Homo sapiens, read-out: MV-411 IC50
From the text: as §1, §2, §3, §4, §5, §6

[1] = molecular target: T1, full-length human Aurora A (Homo sapiens, UniProt O14965); assay: Aurora A phosphocellulose filter binding kinase activity assay; assay type: biochemical; conditions: 11 nM Aurora A, 10 μM ATP, 50 μM Kemptide, 45 min; read-out: Aur-A IC50
T1 construct: The full-length human Aurora A carrying His6 tag at the N-terminus; His6 (N); purchased Invitrogen, Carlsbad, Calif
T1 sequence (O14965 1-403): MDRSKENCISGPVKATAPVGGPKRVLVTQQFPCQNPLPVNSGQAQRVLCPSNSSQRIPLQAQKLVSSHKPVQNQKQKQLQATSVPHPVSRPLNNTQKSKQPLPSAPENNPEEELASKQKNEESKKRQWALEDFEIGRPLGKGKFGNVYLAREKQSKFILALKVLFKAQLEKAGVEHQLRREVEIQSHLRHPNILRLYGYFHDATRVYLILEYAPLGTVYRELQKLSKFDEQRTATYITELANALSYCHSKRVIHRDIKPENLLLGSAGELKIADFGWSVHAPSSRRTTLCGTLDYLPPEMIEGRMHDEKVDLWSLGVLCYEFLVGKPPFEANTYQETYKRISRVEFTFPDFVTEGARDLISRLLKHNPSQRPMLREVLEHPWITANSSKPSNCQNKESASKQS
Procedure: (§7) Kinase activity of Aurora kinases was measured by phosphocellulose filter binding assay. The full-length human Aurora A carrying His6 tag at the N-terminus (Invitrogen, Carlsbad, Calif.) and the full-length human Aurora B (N-terminal GST fusion) co-expressed and co-purified with the His6-INCENP INBOX, aminoacids 803-918 (Carna BioSciences, Japan) were used as the enzyme in the assays. Tested compounds were diluted in DMSO and pre-incubated with the enzyme and ATP/Mg^2+ mixture for at least 10 minutes. The reaction was started by addition of the Kemptide peptide substrate (LRRASLG) and allowed to proceed for 45 min at room temperature. Each reaction in a final volume of 40 μl contained 50 μM Kemptide, 10 μM [γ-^33P]ATP (1 Ci/mmol) and either 11 nM Aurora A or 1.5 nM Aurora B/INCENP complex in the buffer containing 10 mM MgCl2, 5% DMSO, 20 mM MOPS, pH 7.2, 25 mM β-glycerol phosphate, 5 mM EGTA, 1 mM Na3VO4 and either 0.1 mg/ml of BSA and 1 mM DTT for Aurora A or 0.01% Triton-X100 and 2 mM DTT for Aurora B. The reaction was stopped with 25 μl of 5% H3PO4, and 45 μl of the mixture was transferred into a MultiScreen-PH filterplate (Millipore) pre-washed with 0.85% H3PO4. The filterplate was washed 4 times with 200 μl of 0.85% H3PO4 on a vacuum manifold. Scintillation fluid (50 μl of Ultima Gold™ LLT, PerkinElmer, Waltham, Mass.) was added to each well, and after 1-hr incubation at room temperature the plates were counted on MicroBeta (PerkinElmer, Waltham, Mass.) plate reader. […] Percent inhibition values were calculated based on the counts of the positive and negative controls, and these values were regressed against inhibitor concentration and fit into a four parameter model. From this fit the IC50 values (the inhibitor concentration at which 50% inhibition occurs) were derived as the inflection point on the semi-logarithm inhibition curve.

[2] = molecular target: T2, full-length human Aurora B/INCENP complex (Homo sapiens, UniProt Q96GD4); assay: Aurora B phosphocellulose filter binding kinase activity assay; assay type: biochemical; conditions: 1.5 nM Aurora B/INCENP complex, 10 μM ATP, 50 μM Kemptide, 45 min; read-out: Aur-B IC50
T2 construct: the full-length human Aurora B (N-terminal GST fusion); GST (N); purchased Carna BioSciences, Japan
Procedure: as §7

[3] = COLO 205, Colorectal cancer, 72 hrs, 50% growth inhibition relative to control
[4] = HCT-116, Colorectal cancer, 168 hrs, 50% growth inhibition relative to control

T2 sequence (Q96GD4 whole entry, the tested form may be a part): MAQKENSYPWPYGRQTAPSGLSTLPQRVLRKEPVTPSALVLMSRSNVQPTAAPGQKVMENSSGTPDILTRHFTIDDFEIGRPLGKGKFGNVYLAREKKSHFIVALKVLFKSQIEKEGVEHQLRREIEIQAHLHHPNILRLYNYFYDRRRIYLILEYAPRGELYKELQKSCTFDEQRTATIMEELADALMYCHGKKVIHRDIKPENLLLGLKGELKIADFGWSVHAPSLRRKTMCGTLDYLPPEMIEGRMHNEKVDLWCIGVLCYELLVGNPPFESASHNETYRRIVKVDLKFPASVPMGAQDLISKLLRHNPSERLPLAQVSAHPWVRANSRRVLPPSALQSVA
T2 sequence (Q9NQS7 803-918 partner limits assumed): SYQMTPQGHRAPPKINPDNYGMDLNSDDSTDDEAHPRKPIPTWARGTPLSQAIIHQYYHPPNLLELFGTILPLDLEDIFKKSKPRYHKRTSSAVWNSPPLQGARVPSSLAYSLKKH

| Structure (SMILES) | IC50 [1] [nM] | IC50 [2] [nM] | IC50 (Colo205; [3]) [nM] | IC50 (HCT116; [4]) [nM] | also measured |
| --- | --- | --- | --- | --- | --- |
| Cc1cc(Nc2cc(N3CCN(C)CC3)nc(Sc3ccc(NC(=O)C4CC4)cc3)n2)n[nH]1 [VX-680, reference compound] | – | – | – | – | IC50 (Colo205; COLO 205, 72 h): 30.2 nM; IC50 (HL-60; HL-60, 72 h): 13.8 nM; IC50 (SW620; SW-620, 168 h): 21.8 nM; IC50 (HCT116; HCT-116, 168 h): 18 nM; IC50 (MCF-7; MCF7, 240 h): 31 nM; IC50 (MV-411; MV4-11, 72 h): 79 nM |
| O=C(Cc1cc(Nc2ncnc3cc(-c4ccc(C(=O)N5CCN(CCO)CC5)cc4)ccc23)n[nH]1)Nc1cccc(F)c1F [Compound 15, N-(2,3-Difluorophenyl)-2-(3-(7-(4-(4-(2-hydroxyethyl)piperazine-1-carbonyl)phenyl)quinazolin-4-ylamino)-1H-pyrazol-5-yl)acetamide] | 1.89 | 0.63 | 3.07 | 1.71 | – |
| O=C(Cc1cc(Nc2ncnc3cc(-c4ccc(C(=O)N5CCN(C6CC6)CC5)cc4)ccc23)n[nH]1)Nc1cccc(F)c1 [Compound 10, 2-(3-(7-(4-(4-Cyclopropylpiperazine-1-carbonyl)phenyl)quinazolin-4-ylamino)-1H-pyrazol-5-yl)-N-(3-fluorophenyl)acetamide] | 4.62 | 1.23 | 5.35 | 1.57 | – |
| C[C@@H]1CN(C(=O)c2ccc(-c3ccc4c(Nc5cc(CC(=O)Nc6cccc(F)c6)[nH]n5)ncnc4c3)cc2)C[C@H](C)N1 [Compound 11, 2-(3-(7-(4-((3S,5R)-3,5-dimethylpiperazine-1-carbonyl)phenyl)quinazolin-4-ylamino)-1H-pyrazol-5-yl)-N-(3-fluorophenyl)acetamide] | 6.42 | 1.37 | 2.9 | 1.62 | – |
| O=C(Cc1cc(Nc2ncnc3ccccc23)n[nH]1)Nc1cccc(F)c1 [Compound 8, N-(3-fluorophenyl)-2-(3-(quinazolin-4-ylamino)-1H-pyrazol-5-yl)acetamide] | 2480 | 14.9 | – | – | – |
| CC(=O)O[C@H]1C(=O)[C@@]2(C)[C@H]([C@H](OC(=O)c3ccccc3)[C@]3(O)C[C@H](OC(=O)[C@H](O)[C@@H](NC(=O)c4ccccc4)c4ccccc4)C(C)=C1C3(C)C)[C@]1(OC(C)=O)CO[C@@H]1C[C@@H]2O [Taxol, reference compound] | – | – | 2.54 | 2.04 | IC50 (HL-60; HL-60, Leukemia, 72 hrs, 50% growth inhibition relative to control): 2.16 nM; IC50 (SW620; SW-620, Colorectal cancer, 168 hrs, 50% growth inhibition relative to control): 4.91 nM; IC50 (MCF-7; MCF7, Breast Cancer, 240 hrs, 50% growth inhibition relative to control): 0.58 nM; IC50 (MV-411; MV4-11, Leukemia, 72 hrs, 50% growth inhibition relative to control): 6.2 nM |
| O=C(Cc1cc(Nc2ncnc3cc(-c4ccc(C(=O)N5CCN(CCO)CC5)cc4)ccc23)n[nH]1)Nc1cc(F)cc(F)c1 [Compound 14, N-(3,5-Difluorophenyl)-2-(3-(7-(4-(4-(2-hydroxyethyl)piperazine-1-carbonyl)phenyl)quinazolin-4-ylamino)-1H-pyrazol-5-yl)acetamide] | 2.29 | 0.83 | 8.11 | 5.75 | – |
| O=C(Cc1cc(Nc2ncnc3cc(-c4ccc(C(=O)N5CCN(CCOP(=O)(O)O)CC5)cc4)ccc23)n[nH]1)Nc1cccc(F)c1 [Compound 13, 2-(4-(4-(4-(5-(2-(3-Fluorophenylamino)-2-oxoethyl)-1H-pyrazol-3-ylamino)quinazolin-7-yl)benzoyl)piperazin-1-yl)ethyl dihydrogen phosphate] | 1.91 | 0.34 | 9.39 | 6.43 | – |
| O=C(Cc1cc(Nc2ncnc3cc(-c4ccc(C(=O)N5CCN(CCF)CC5)cc4)ccc23)n[nH]1)Nc1cccc(F)c1 [Compound 12, 2-(3-(7-(4-(4-(2-Fluoroethyl)piperazine-1-carbonyl)phenyl)quinazolin-4-ylamino)-1H-pyrazol-5-yl)-N-(3-fluorophenyl)acetamide] | 2.86 | 0.74 | 7.82 | 3.98 | – |
| CN1CCN(S(=O)(=O)c2ccc(-c3ccc4c(Nc5cc(CC(=O)Nc6cccc(F)c6)[nH]n5)ncnc4c3)cc2)CC1 [Compound 7, N-(3-fluorophenyl)-2-(3-(7-(4-(4-methylpiperazin-1-ylsulfonyl)phenyl)quinazolin-4-ylamino)-1H-pyrazol-5-yl)acetamide] | 13.9 | 0.93 | – | – | – |
| CCN(CCO)CCCOc1ccc2c(Nc3cc(CC(=O)Nc4cccc(F)c4)[nH]n3)ncnc2c1 [AZD1152HQPA, reference compound] | – | – | – | – | IC50 (Colo205; COLO 205, 72 h): 23 nM; IC50 (HL-60; HL-60, 72 h): 7.16 nM; IC50 (SW620; SW-620, 168 h): 20.9 nM; IC50 (HCT116; HCT-116, 168 h): 14.3 nM; IC50 (MCF-7; MCF7, 240 h): 60.7 nM; IC50 (MV-411; MV4-11, 72 h): 16.5 nM |
| O=C(Cc1cc(Nc2ncnc3cc(-c4ccc(C(=O)N5CCN(CC6CC6)CC5)cc4)ccc23)n[nH]1)Nc1cccc(F)c1 [Compound 9, 2-(3-(7-(4-(4-(Cyclopropylmethyl)piperazine-1-carbonyl)phenyl)quinazolin-4-ylamino)-1H-pyrazol-5-yl)-N-(3-fluorophenyl)acetamide] | 9.51 | 1.88 | 9.88 | 4.38 | – |

Reference: patent US20110136766A1, “AURORA KINASE INHIBITORS” (Vitae Pharmaceuticals, Inc., priority 2008, published 2011)
